Molecular target: IRE1a (Homo sapiens, UniProt O75460)
Assay: IRE1a Endoribonuclease Nanoluciferase Assay (XBP1 luciferase reporter in 293T cells)
Type: cell-based
Set-up: endogenous in cells; host or cells: 293T
Conditions: XBP1 nanoluciferase reporter in 293T cells, ER stressor; tested as the salt named
Experimental: Compounds disclosed herein were assessed for disruption of IRE1 signaling using a IRE1a Endoribonuclease Nanoluciferase Assay. […] About 24 hours later, the cells were transfected with Effectene. In a 15 mL tube, the following was added: 2 ug XBP1 luciferase reporter plasmid (PGK-Luc2-P2A-XBP1u-Nanoluciferase-PEST); 300 ul EC buffer; and 16 ul Enhancer, followed by incubation at room temp for 5 minutes. […] 2.6 mL cDMEM media was added. Old media was aspirated from the cells, followed by addition of 7 mL fresh media. Full transfection mixture was added dropwise to cells. Cells were incubated for 6 hours, followed by trypsinization, centrifugation and resuspension in 11 mL fresh cDMEM media. 100 μL of cells were plated per a well in a 96 well plate. A day later, ER stressors of choice +/− inhibitors were added. To harvest, media was aspirated from cells completely, then 50 uL 1× passive lysis buffer (Promega: E1941) was added per well and put on shaker (300 rpm) for 30 minutes at room temperature. […] 15 uL OneGlo (nanoluciferase kit, Promega N1630) was added. Plates were spun down, placed on shaker (300 rpm) for 10 minutes. Plates were read on luminometer, 1000 ms integration time per well. 15 uL Stop and Glo (nanoluciferase kit) was added. Plates were spun down, placed on shaker (300 rpm) for 10 minutes. Plates were read on luminometer, 1000 ms second integration time per well.

IRE1a, sequence (O75460 19-977): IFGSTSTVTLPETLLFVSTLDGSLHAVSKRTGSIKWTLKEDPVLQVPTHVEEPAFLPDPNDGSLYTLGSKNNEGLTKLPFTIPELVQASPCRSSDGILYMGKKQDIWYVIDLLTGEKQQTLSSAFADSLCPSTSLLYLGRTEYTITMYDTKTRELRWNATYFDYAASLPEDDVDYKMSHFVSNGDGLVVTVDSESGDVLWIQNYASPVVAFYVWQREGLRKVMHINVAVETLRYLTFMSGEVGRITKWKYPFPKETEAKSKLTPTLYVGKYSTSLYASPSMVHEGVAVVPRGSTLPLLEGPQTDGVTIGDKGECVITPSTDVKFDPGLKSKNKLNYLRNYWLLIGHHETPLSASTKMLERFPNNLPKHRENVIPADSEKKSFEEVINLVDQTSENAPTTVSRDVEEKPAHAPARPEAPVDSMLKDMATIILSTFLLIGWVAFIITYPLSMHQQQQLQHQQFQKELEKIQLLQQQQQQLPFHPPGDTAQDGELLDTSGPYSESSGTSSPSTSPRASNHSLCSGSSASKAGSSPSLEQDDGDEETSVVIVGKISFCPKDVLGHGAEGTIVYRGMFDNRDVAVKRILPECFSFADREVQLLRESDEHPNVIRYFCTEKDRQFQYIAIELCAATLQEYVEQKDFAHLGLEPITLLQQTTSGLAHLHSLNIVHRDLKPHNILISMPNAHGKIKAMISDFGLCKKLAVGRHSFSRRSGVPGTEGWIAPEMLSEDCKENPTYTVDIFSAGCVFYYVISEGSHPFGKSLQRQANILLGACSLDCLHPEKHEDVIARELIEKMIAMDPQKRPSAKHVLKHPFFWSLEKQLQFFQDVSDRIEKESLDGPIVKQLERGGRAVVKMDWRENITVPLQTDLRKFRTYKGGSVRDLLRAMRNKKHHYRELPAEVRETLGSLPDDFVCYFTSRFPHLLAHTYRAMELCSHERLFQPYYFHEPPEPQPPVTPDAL

Compound	EC50 [nM]
CCc1cc(-c2cc(OC)c(NS(=O)(=O)c3ccccc3Cl)nn2)cc2cnc(N[C@H]3CC[C@H](N)CC3)nc12 [Compound 66, N-(6-(2-(((1r,4r)-4-aminocyclohexyl)amino)-8-ethylquinazolin-6-yl)-4-methoxypyridazin-3-yl)-2-chlorobenzene-sulfonamide]	50 to 100
CCc1cc(-c2cc(NS(=O)(=O)c3ccccc3Cl)n[nH]2)cc2cnc(N[C@H]3CC[C@H](N)CC3)nc12 [Compound 29, N-(5-(2-(((lr,4r)-4-aminocyclohexyl)amino)-8-ethylquinazolin-6-yl)-1H-pyrazol-3-yl)-2-chlorobenzene-sulfonamide]	100 to 10000
NC12CCC(Nc3ncc4cc(-c5ccc(NS(=O)(=O)c6ccccc6Cl)c(F)c5)ccc4n3)(CC1)C2 [Compound 86, N-(4-(2-((4-aminobicyclo[2.2. 1]heptan-1-yl)amino)quinazolin-6-yl)-2-fluorophenyl)-2-chlorobenzene-sulfonamide]	50 to 100
N[C@H]1CCC[C@@H](Nc2ncc3cc(-c4ccc(NS(=O)(=O)c5ccccc5Cl)c(F)c4)ccc3n2)C1 [Compound 75]	100 to 10000
N[C@H]1CC[C@H](Nc2ncc3cc(-c4cnc(NS(=O)(=O)c5ccccc5Cl)c(F)c4)ccc3n2)CC1 [Compound 54, N-(5-(2-(((1r,4r)-4-aminocyclohexyl)amino)quinazolin-6-yl)-3-fluoropyridin-2-yl)-2-chlorobenzene-sulfonamide]	5 to 50
COc1nc(NS(=O)(=O)c2ccccc2Cl)c(F)cc1-c1cc(F)c2nc(N[C@H]3CC[C@H](N(C)C)CC3)ncc2c1 [Compound 155, 2-chloro-N-(5-(2-(((1r,4r)-4-(dimethylamino)cyclohexyl)amino)-8-fluoroquinazolin-6-yl)-3-fluoro-6-methoxypyridin-2-yl)benzenesulfonamide]	50 to 100
CCc1cc(NS(=O)(=O)c2ccccc2Cl)ccc1-c1cc(CC)c2nc(N[C@H]3CC[C@H](N)CC3)ncc2c1 [Compound 34, N-(4-(2-(((1r,4r)-4-aminocyclohexyl)amino)-8-ethylquinazolin-6-yl)-3-ethylphenyl)-2-chlorobenzene-sulfonamide]	5 to 50
Cc1cc2nc(N[C@H]3CC[C@H](N)CC3)ncc2cc1-c1ccc(NS(=O)(=O)c2ccccc2Cl)c(F)c1 [Compound 90, N-(4-(2-(((1r,4r)-4-aminocyclohexyl)amino)-7-methylquinazolin-6-yl)-2-fluorophenyl)-2-chlorobenzene-sulfonamide]	5 to 50
N[C@@H]1CC[C@@H](Nc2ncc3cc(-c4ccc(NS(=O)(=O)c5ccccc5Cl)c(F)c4)ccc3n2)C1 [Compound 77, N-(4-(2-(((1R,3R)-3-aminocyclopentyl)amino)quinazolin-6-yl)-2-fluorophenyl)-2-chlorobenzene-sulfonamide]	5 to 50
COc1nc(NS(=O)(=O)c2ccccc2Cl)c(F)cc1-c1ccc2nc(N[C@H]3CC[C@H](N(C)C)CC3)ncc2c1 [Compound 149, 2-chloro-N-(5-(2-(((1r,4r)-4-(dimethylamino)cyclohexyl)amino)quinazolin-6-yl)-3-fluoro-6-methoxypyridin-2-yl)benzenesulfonamide]	5 to 50
CCCc1cc(-c2cc(NS(=O)(=O)c3ccccc3Cl)nn2C)cc2cnc(N[C@H]3CC[C@H](N)CC3)nc12 [Compound 47, N-(5-(2-(((1r,4r)-4-aminocyclohexyl)amino)-8-propylquinazolin-6-yl)-1-methyl-1H-pyrazol-3-yl)-2-chlorobenzene-sulfonamide]	5 to 50
NC12CCC(Nc3ncc4cc(-c5ccc(NS(=O)(=O)c6ccccc6Cl)c(F)c5)ccc4n3)(CC1)CC2 [Compound 81, N-(4-(2-((4-aminobicyclo[2.2. 2]octan-1-yl)amino)quinazolin-6-yl)-2-fluorophenyl)-2-chlorobenzene-sulfonamide]	< 5
CCc1cc(-c2cc(NS(=O)(=O)c3ccccc3Cl)no2)cc2cnc(N[C@H]3CC[C@H](N)CC3)nc12 [Compound 44, N-(5-(2-(((1r,4r)-4-aminocyclohexyl)amino)-8-ethylquinazolin 6-yl)isoxazol-3-yl)-2-chlorobenzene-sulfonamide]	< 5
CCc1cc(-c2ncc(NS(=O)(=O)c3ccccc3Cl)cn2)cc2cnc(N[C@H]3CC[C@H](N)CC3)nc12 [Compound 33, N-(2-(2-(((1r,4r)-4-aminocyclohexyl)amino)-8-ethylquinazolin-6-yl)pyrimidin-5-yl)-2-chlorobenzene-sulfonamide]	< 5

More lines, now with the values ahead:

EC50 [nM]	Compound
< 5	CCc1cc(-c2ccc(NS(=O)(=O)c3ccccc3Cl)c(F)c2)cc2cnc(N[C@H]3CC[C@H](NC)CC3)nc12 [Compound 60, 2-chloro-N-(4-(8-ethyl-2-(((1r,4)-4-(methylamino)cyclohexyl)amino)quinazolin-6-yl)-2-fluorophenyl) benzene-sulfonamide]
< 5	CCc1cc(-c2ccc(NS(=O)(=O)c3ccccc3Cl)c(F)c2)cc2cnc(NC34CCC(N)(CC3)CC4)nc12 [Compound 87, N-(4-(2-((4-aminobicyclo[2.2. 2]octan-1-yl)-amino)-8-ethylquinazolin-6-yl)-2-fluorophenyl)-2-chlorobenzene-sulfonamide]
< 5	CCc1cc(-c2ccc(NS(=O)(=O)c3ccccc3Cl)c(F)c2)cc2cnc(N[C@H]3CC[C@H](N)CC3)nc12 [Compound 24, N-(4-(2-(((1r,4r)-4-aminocyclohexyl)amino)-8-ethylquinazolin-6-yl)-2-fluorophenyl)-2-chlorobenzene-sulfonamide]
< 5	CCc1cc(-c2cnc(NS(=O)(=O)c3ccccc3Cl)nc2OC)cc2cnc(N[C@H]3CC[C@H](N)CC3)nc12 [Compound 46, N-(5-(2-(((1r,4r)-4-aminocyclohexyl)amino)-8-ethylquinazolin-6-yl)-4-methoxypyrimidin-2-yl)-2-chlorobenzene-sulfonamide]
< 5	CCc1cc(-c2ccc(NS(=O)(=O)c3ccccc3Cl)nc2C)cc2cnc(NC3CCC(N(C)CC)CC3)nc12 (stereo not shown) [Compound 125, 2-chloro-N-(5-(8-ethyl-2-(((1r,4r)-4-(ethyl(methyl)amino)cyclohexyl)amino)quinazolin-6-yl)-6-methylpyridin-2-yl)benzenesulfonamide]
< 5	CCc1cc(-c2cc(F)c(NS(=O)(=O)c3ccccc3Cl)nc2C)cc2cnc(N[C@H]3CC[C@H](N(C)C)CC3)nc12 [Compound 97, 2-chloro-N-(5-(2-(((1r,4r)-4-(dimethylamino)cyclohexyl)amino)-8-ethylquinazolin-6-yl)-3-fluoro-6-methylpyridin-2-yl)benzenesulfonamide]
< 5	CCc1cc(-c2ncc(NS(=O)(=O)c3ccccc3Cl)cc2F)cc2cnc(N[C@H]3CC[C@H](N)CC3)nc12 [Compound 52, N-(6-(2-(((1r,4r)-4-aminocyclohexyl)amino)-8-ethylquinazolin-6-yl)-5-fluoropyridin-3-yl)-2-chlorobenzene-sulfonamide]
< 5	N[C@H]1CC[C@H](Nc2ncc3cc(-c4ccc(NS(=O)(=O)c5ccccc5Cl)c(F)c4F)ccc3n2)CC1 [Compound 56, N-(4-(2-(((1r,4r)-4-aminocyclohexyl)amino)quinazolin-6-yl)-2,3-difluorophenyl)-2-chlorobenzene-sulfonamide]
< 5	CCc1cc(-c2ccc(NS(=O)(=O)c3ccccc3Cl)c(F)c2)cc2cnc(N[C@H]3CC[C@H](N4CCCC4)CC3)nc12 [Compound 88, 2-chloro-N-(4-(8-ethyl-2-(((lr,4r)-4-(pyrrolidin-1-yl)cyclohexyl)amino)quinazolin-6-yl)-2-fluorophenyl) benzene-sulfonamide]
< 5	CCc1cc(-c2cc(F)c(NS(=O)(=O)c3ccccc3Cl)nc2OC)cc2cnc(NC3CCC(NC)CC3)nc12 (stereo not shown) [Compound 127, 2-chloro-N-(5-(8-ethyl-2-(((1r,4r)-4-(methylamino)cyclohexyl)amino)quinazolin-6-yl)-3-fluoro-6-methoxypyridin-2-yl)benzenesulfonamide]
< 5	N[C@H]1CC[C@H](Nc2ncc3cc(-c4cc(F)c(NS(=O)(=O)c5ccccc5Cl)cc4F)ccc3n2)CC1 [Compound 53, N-(4-(2-(((1r,4r)-4-aminocyclohexyl)amino)quinazolin-6-yl)-2,5-difluorophenyl)-2-chlorobenzene-sulfonamide]
< 5	CCc1cc(-c2ncc(NS(=O)(=O)c3ccccc3Cl)nc2OC)cc2cnc(N[C@H]3CC[C@H](N(C)C)CC3)nc12 [Compound 157, 2-chloro-N-(5-(2-(((1r,4r)-4-(dimethylamino)cyclohexyl)amino)-8-ethylquinazolin-6-yl)-6-methoxypyrazin-2-yl)benzenesulfonamide]
< 5	CCc1cc(-c2ccc(NS(=O)(=O)c3ccccc3Cl)nc2)cc2cnc(N[C@H]3CC[C@H](N)CC3)nc12 [Compound 27, N-(5-(2-(((lr,4r)-4-aminocyclohexyl)amino)-8-ethylquinazolin-6-yl)pyridin-2-yl)-2-chlorobenzene-sulfonamide]
< 5	CCc1cc(-c2ccc(NS(=O)(=O)c3ccccc3Cl)cn2)cc2cnc(N[C@H]3CC[C@H](N)CC3)nc12 [Compound 28, N-(6-(2-(((1r,4r)-4-aminocyclohexyl)amino)-8-ethylquinazolin-6-yl)pyridin-3-yl)-2-chlorobenzene-sulfonamide]

From patent publication US12479818B2, “Treatment of fibrosis with IRE1 small molecule inhibitors” (Cornell University, priority 2019, dated 2025)
